As a reminder, the thermodynamic solubility is solubility found after equilibrating the solid with the medium. A word on the IC50: it is the point on the concentration scale where inhibition reaches its midpoint. A higher IC50 goes with a need for much substance. Broadly, the ED50 is the dose that gives a 50% effect, or the effect in half of the subjects. A high value points to weaker potency. By Papp A→B is commonly meant the apparent permeability from the apical to the basolateral side of a cell layer. As a reminder, the efflux ratio is a quotient of directional permeabilities that is used to spot active efflux.

The nature of data set [1]: physchem. Particulars: in vivo, pH 7.4.
Data set [2] addresses Dipeptidyl peptidase 4 (Homo sapiens, UniProt P27487).
Description: Inhibition of human DPP4 expressed in baculovirus expression system using Gly-Pro-AMC as substrate by fluorometric assay
For data set [3], the target named is Carbonic anhydrase 2 (Homo sapiens, UniProt P00918). It is filed as ADME.
Description: Inhibition of human carbonic anhydrase 2 using 4-nitrophenyl acetate as substrate by spectrophotometry
Data set [4] in a line: physchem. As to conditions: buffer.
Description: Thermodynamic solubility in water by equilibrium shake-flask method
Data set [5] addresses Vascular endothelial growth factor receptor 2 (Homo sapiens, UniProt P35968). It is filed as cell-based, Sf9.
For data set [6], the system named is A-375. The data set is described as follows: cells. It is filed as functional. Particulars: Homo sapiens, time 72 hrs.
Description: Antiproliferative activity against human A375 cells assessed as cell proliferation at 25 uM after 72 hrs by alamarBlue cell proliferation assay relative to control
Data set [7] deals with HeLa. The experiment in a line: cells. It is filed as functional, cell-based. Particulars: Homo sapiens, 96 h.
Description: Antiproliferative activity against human HeLa cells incubated for 96 hrs by crystal violet staining assay
The test system of data set [8] is Plasmodium falciparum. The data set is described as follows: microbe, parasite or virus in culture. It is filed as functional, organism-based. Particulars: 3D7, Erythrocyte, 48 h.
Description: Antiplasmodial activity against Plasmodium falciparum 3D7 infected in human erythrocytes incubated for 48 hrs by lactate dehydrogenase colorimetric enzyme assay
Data set [9] is filed under the species Rattus norvegicus. The data set is described as follows: animal or person. The class given is functional. As to conditions: iv, 0.5 min, time 30 sec.
Description: Antiallergic activity in iv dosed rat model of IgE-mediated passive cutaneous anaphylaxis administered 30 secs prior to IgE challenge
A short description of data set [10]: physchem. Particulars: in vivo, pH 6.5.
Data set [11] has as its system Plasmodium falciparum. The experiment in a line: microbe, parasite or virus in culture. The class given is functional, organism-based. Particulars: 3D7.
Description: Antiplasmodial activity against Plasmodium falciparum 3D7
The conditions of data set [12]: rat, hepatocytes, 1 µM.
Description: Clearance in rat hepatocytes at 1 uM measured after 2 to 90 mins by HPLC-based LCMS/MS analysis
The conditions of data set [13]: human, hepatocytes, 1 µM.
Description: Clearance in human hepatocytes at 1 uM measured after 2 to 90 mins by HPLC-based LCMS/MS analysis
A short description of data set [14]: in vitro. Particulars: human, Caco-2.
Description: Apparent permeability across apical to basolateral side in human Caco2 cells at 2 uM measured after 2 hrs by LC-MS/MS analysis
The species entered for data set [15] is Rattus norvegicus. The data set is described as follows: animal or person. The class given is functional. Particulars: po, 0.5 h, time 30 min.
Description: Antiallergic activity in po dosed rat model of IgE-mediated passive cutaneous anaphylaxis administered 30 mins prior to IgE challenge
Data set [16] can be described thus: in vitro. Particulars: human, Caco-2. This is another data set of the same source.
Description: Efflux ratio of apparent permeability across basolateral to apical side over apical to basolateral side in human Caco2 cells
For data set [17], the target named is cGMP-specific 3',5'-cyclic phosphodiesterase (Homo sapiens, UniProt O76074). It is filed as cell-based. As to conditions: platelet.
Description: Inhibition of human platelets derived PDE5 using [3H]-cGMP as substrate incubated for 60 min by scintillation proximity assay
The target of data set [18] is T1, 1,25-dihydroxyvitamin D(3) 24-hydroxylase, mitochondrial (Homo sapiens, UniProt Q07973).
T1 sequence (Q07973 whole entry): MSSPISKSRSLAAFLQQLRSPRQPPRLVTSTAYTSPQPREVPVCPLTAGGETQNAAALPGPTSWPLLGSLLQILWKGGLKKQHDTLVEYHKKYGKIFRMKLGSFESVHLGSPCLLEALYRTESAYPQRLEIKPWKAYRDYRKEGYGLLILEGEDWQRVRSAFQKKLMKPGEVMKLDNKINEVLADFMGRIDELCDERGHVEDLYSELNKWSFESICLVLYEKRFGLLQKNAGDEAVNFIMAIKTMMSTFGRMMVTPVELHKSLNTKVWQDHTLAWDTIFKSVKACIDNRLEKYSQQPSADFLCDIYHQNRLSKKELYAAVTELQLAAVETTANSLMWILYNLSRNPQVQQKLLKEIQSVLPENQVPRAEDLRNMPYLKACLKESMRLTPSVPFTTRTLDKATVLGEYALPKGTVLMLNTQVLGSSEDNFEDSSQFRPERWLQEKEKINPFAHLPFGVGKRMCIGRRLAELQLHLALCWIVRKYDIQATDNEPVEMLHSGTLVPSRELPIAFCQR
The data set is described as follows: biochemical. The class given is cell-based, V79.

The target of data set [19] is T2, Nuclear receptor ROR-gamma (Homo sapiens, UniProt P51449).
T2 sequence (P51449 whole entry): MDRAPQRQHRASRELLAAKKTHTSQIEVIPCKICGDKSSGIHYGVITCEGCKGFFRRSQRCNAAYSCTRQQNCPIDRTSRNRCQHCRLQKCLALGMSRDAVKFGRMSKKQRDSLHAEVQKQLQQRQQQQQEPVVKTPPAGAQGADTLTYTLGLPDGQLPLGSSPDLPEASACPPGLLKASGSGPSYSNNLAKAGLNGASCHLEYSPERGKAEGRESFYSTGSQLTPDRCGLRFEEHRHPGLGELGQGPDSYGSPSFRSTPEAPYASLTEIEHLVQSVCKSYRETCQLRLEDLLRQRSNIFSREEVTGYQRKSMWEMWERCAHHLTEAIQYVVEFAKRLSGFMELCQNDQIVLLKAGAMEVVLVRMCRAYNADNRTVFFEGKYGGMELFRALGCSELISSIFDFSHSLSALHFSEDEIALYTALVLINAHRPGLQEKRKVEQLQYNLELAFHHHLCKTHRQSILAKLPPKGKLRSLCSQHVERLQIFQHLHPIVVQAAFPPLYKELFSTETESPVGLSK
It is filed as cell-based, CD4+ve Th.
Description: Inverse agonist activity at RORgammat in human CD4-positive T cells assessed as reduction in Th17 level incubated for 5 days by MSD electrochemiluminescent cytokine assay

For data set [20], the target named is Beta-secretase 1 (Homo sapiens, UniProt P56817). It is filed as cell-based, HEK293.
Description: Inhibition of BACE1 in HEK293 cells harboring APP assessed as reduction in amyloidbeta 40 level measured after 18 to 20 hrs by AlphaLISA Assay
The test system of data set [21] is MCF7. The experiment in a line: cells. As to conditions: Homo sapiens, MCF7, 96 h. The class given is functional, cell-based.
Description: Antiproliferative activity against human MCF7 cells incubated for 4 days by crystal violet staining based assay
The target in data set [22] is Cyclin-dependent kinase 1/cyclin B1 (Homo sapiens, UniProt P06493). It is filed as cell-based, Sf9.
Data set [23] addresses T3, Cyclin-dependent kinase 2/cyclin E1 (Homo sapiens, UniProt P24941). The class given is cell-based, Sf9.
In data set [24] the target is T4, Estrogen receptor (Homo sapiens, UniProt P03372).
T4 sequence (P03372 whole entry): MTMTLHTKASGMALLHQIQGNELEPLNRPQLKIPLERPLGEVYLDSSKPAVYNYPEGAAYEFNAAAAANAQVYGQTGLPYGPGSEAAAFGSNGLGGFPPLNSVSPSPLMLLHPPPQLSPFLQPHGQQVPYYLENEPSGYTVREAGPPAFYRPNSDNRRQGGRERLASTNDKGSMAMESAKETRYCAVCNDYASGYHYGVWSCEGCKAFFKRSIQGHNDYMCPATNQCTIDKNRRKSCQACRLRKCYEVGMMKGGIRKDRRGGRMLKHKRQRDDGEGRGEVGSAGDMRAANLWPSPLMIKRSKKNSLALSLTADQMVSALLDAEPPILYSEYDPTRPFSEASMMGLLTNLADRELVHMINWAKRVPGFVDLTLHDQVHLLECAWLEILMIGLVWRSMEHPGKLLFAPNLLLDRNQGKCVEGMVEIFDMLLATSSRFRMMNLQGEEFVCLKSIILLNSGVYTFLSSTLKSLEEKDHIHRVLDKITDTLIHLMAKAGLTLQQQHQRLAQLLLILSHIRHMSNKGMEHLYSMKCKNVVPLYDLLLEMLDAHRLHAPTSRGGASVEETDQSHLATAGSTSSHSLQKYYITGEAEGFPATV
Description: Inhibition of wild type ESR1 (unknown origin) by transactivation assay

Data set [25] has as its target T3, Cyclin-dependent kinase 2/cyclin E1. It is filed as cell-based, Sf9. This is another data set of the same source.

≈ marks a conversion by molar mass, not a printed value.

Beta-secretase 1, sequence (P56817 whole entry): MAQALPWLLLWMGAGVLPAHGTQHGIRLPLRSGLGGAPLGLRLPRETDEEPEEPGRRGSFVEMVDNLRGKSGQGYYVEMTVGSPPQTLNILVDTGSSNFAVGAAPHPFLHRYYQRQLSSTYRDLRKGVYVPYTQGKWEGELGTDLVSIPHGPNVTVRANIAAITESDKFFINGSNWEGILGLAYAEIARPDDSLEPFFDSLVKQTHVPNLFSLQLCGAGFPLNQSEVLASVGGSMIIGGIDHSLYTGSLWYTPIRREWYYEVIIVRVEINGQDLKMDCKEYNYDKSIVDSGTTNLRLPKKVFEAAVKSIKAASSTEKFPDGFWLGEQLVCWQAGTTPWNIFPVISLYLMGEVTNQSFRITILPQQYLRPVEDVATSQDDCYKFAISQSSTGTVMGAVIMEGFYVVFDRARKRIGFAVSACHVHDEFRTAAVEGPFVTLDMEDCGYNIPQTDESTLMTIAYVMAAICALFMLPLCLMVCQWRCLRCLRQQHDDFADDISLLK
Vascular endothelial growth factor receptor 2, sequence (P35968 whole entry): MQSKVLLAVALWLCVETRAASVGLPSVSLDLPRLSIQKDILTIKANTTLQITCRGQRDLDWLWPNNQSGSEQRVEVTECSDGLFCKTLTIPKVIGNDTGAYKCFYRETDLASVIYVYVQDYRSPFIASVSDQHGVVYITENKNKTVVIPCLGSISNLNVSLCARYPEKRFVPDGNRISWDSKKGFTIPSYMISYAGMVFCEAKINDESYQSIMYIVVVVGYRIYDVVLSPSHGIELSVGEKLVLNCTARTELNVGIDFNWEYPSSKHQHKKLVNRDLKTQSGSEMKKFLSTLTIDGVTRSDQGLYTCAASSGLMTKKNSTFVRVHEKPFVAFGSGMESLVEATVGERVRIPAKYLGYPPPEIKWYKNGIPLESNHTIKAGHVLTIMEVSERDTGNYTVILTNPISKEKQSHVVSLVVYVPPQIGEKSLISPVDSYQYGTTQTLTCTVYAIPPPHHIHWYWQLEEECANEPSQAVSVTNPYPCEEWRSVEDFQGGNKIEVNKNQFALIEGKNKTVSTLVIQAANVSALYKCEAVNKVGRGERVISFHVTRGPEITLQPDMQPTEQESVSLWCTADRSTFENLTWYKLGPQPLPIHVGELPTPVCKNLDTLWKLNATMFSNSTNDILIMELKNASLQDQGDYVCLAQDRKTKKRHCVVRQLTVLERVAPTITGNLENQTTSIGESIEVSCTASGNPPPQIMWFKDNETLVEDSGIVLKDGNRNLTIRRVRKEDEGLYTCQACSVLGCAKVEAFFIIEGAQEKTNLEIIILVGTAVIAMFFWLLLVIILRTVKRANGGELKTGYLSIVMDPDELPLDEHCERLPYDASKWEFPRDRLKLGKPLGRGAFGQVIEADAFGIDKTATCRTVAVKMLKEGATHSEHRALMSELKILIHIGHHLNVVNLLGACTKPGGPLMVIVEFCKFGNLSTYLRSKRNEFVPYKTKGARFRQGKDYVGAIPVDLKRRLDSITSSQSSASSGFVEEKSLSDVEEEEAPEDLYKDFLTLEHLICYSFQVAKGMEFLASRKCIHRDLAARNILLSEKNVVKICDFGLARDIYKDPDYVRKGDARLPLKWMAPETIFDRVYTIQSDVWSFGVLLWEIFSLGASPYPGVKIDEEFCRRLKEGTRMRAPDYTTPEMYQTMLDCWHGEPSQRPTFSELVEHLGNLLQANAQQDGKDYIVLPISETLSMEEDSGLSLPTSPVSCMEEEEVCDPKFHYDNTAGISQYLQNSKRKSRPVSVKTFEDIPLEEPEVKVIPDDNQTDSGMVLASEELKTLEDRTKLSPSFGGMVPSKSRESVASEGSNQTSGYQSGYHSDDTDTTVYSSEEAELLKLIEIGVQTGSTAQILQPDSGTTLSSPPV
Dipeptidyl peptidase 4, sequence (P27487 whole entry): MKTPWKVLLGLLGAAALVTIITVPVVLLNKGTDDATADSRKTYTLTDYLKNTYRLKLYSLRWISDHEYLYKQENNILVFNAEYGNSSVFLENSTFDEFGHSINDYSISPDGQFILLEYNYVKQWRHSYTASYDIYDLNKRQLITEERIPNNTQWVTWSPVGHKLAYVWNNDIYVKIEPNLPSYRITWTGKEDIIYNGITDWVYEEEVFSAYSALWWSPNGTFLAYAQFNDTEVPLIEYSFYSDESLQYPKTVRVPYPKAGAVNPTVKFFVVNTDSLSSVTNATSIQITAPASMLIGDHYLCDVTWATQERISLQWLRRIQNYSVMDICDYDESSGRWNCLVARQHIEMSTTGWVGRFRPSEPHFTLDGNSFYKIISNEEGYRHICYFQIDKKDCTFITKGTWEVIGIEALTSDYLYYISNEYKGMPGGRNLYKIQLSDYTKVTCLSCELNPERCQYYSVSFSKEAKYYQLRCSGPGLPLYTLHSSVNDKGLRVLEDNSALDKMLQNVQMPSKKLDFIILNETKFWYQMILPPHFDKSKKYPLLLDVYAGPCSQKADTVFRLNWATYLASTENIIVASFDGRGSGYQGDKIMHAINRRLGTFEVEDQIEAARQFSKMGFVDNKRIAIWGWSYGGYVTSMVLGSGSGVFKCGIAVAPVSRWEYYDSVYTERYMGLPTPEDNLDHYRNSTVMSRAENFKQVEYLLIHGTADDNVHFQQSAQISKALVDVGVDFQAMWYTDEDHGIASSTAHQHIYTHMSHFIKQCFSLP
Cyclin-dependent kinase 1/cyclin B1, sequence (P06493 whole entry): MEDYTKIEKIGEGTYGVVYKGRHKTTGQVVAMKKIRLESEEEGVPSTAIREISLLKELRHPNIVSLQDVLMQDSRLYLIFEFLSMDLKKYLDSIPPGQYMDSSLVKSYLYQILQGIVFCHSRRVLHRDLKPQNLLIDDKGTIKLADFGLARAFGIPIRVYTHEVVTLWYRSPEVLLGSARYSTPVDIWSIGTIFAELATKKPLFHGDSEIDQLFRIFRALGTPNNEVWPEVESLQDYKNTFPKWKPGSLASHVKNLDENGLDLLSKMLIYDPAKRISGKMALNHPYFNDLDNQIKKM
Cyclin-dependent kinase 1/cyclin B1, sequence (P14635 whole entry, further chain): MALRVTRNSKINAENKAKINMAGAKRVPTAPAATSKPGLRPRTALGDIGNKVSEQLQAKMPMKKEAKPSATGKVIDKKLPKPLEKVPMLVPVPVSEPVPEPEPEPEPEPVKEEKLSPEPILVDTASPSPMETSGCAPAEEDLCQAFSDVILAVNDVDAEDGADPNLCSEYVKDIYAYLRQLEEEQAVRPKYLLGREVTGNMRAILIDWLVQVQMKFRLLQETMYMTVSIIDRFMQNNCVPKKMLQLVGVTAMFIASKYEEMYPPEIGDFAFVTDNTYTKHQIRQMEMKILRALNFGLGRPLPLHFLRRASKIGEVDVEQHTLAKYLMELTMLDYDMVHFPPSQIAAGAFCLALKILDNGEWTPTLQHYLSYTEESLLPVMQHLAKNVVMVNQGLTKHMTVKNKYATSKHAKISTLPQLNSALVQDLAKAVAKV

With `COc1cc(F)ccc1-c1ncnc(Nc2cccc(CS(N)(=O)=O)c2)n1`, the solubility (thermodynamic) at 24 h in [1] is 0.011 mg/mL (≈ 28.2 µM).

`N[C@H]1C[C@@H](N2Cc3cn(S(=O)(=O)NC(=O)c4ccccc4)nc3C2)CO[C@@H]1c1cc(F)ccc1F`: in data set [2], it took 8.8 nM to reach half-maximal inhibition (IC50). Regarding `C[C@H](CO)Nc1nc(Nc2ccc(S(N)(=O)=O)cc2)ncc1Br.Cl`, the half-maximal inhibitory concentration (IC50) in data set [3] was determined as 514 nM; in [5] it was 34 nM. In data set [4], this compound displayed a thermodynamic solubility of 0.008 mg/mL. As to `O=C(NS(=O)(=O)c1ccc(Br)s1)c1ccc(Cl)cc1Cl`, in data set [6], the growth at 25 µM is 25%. With `CS(=O)(=NS(=O)(=O)c1ccccc1)n1cc2c(n1)CN([C@H]1CO[C@H](c3cc(F)ccc3F)[C@@H](N)C1)C2` (some centres not stated), the 50% inhibitory concentration (IC50) in data set [2] turned out to be 18 nM. Take `COc1cc(F)ccc1-c1ncnc(Nc2cccc(C[S@](C)(=N)=O)c2)n1` [ATUVECICLIB]: the thermodynamic solubility at 24 h in [1] was 0.479 mg/mL (≈ 1240 µM). This compound displayed an IC50 in data set [7] of 1500 nM. Regarding `N=S(=O)(NC(=O)c1ccc(Cl)cc1Cl)c1ccc(Br)s1` (configuration not stated), the growth at 25 µM in data set [6] stood at 40%. With `CC(C)(C)c1ccc2c(c1)[C@H]1O[C@H](COCc3ccccc3)[C@@H](OCc3ccccc3)[C@H](OCc3ccccc3)[C@H]1C[S@@]2(=N)=O`, the IC50 in data set [8] worked out at 800 nM. On to `O=C([O-])c1cc(=O)c2c(OCC(O)COc3cccc4oc(C(=O)[O-])cc(=O)c34)cccc2o1.[Na+].[Na+]` [CROMOLYN SODIUM], for which, in [9], the 50% effect level (ED50) was put at a dose of 1.21 mg/kg.

Compound `C[C@@H](O)[C@@H](C)Oc1nc(Nc2ccc(S(C)(=O)=O)cc2)ncc1C(F)(F)F` yielded an IC50 in data set [3] of over 10000 nM.

In turn, `COc1cc(F)ccc1-c1nc(Nc2cc(F)cc(CS(C)(=N)=N)c2)ncc1F` had a solubility (thermodynamic) at 24 h in data set [10] of 0.091 mg/mL (≈ 216 µM). `CCCCCCCCCCCS(=O)(=NCc1cn(Cc2ccccc2)nn1)c1ccccc1` (configuration not stated): in data set [11], the 50% inhibitory concentration (IC50) is 6600 nM.

As to `C[C@@H](O)[C@@H](C)Oc1nc(Nc2ccc([S@](=N)(=O)C3CC3)cc2)ncc1C(F)(F)F`, the figures for the 50% inhibitory concentration (IC50) in data set [3] and in data set [5] were over 10000 nM and 163 nM, respectively. This compound came in with a solubility (thermodynamic) in [4] of 0.182 mg/mL (≈ 423 µM).

Turning to `O=C(NC1CCNCC1)c1n[nH]cc1NC(=O)c1c(Cl)cccc1Cl` [AT-7519], the CLH turned out to be 1.76 L/h/kg in data set [12] and 0.24 L/h/kg in data set [13].

In [14], `CCCc1nc(C)c2c(=O)[nH]c(-c3cc(S(=O)(=O)N4CCN(CC)CC4)ccc3OCC)nn12` registered a Papp A→B at 2 h, 2 µM of 2060 nm/s.

The compound `CCCCCCc1cc(S(C)(=N)=O)cc2c(=O)c3cc(C(=O)O)ccc3oc12` (configuration not stated) [SUDEXANOX] returned a median effective dose (ED50) in [15] of 0.19 mg/kg.

`CCCc1nc(C)c2c(=O)[nH]c(-c3cc(S(=O)(=O)N4CCS(=N)(=O)CC4)ccc3OCC)nn12`: in data set [16], the efflux ratio is 288. The compound further displayed a Papp A→B at 2 h, 2 µM in [14] of 7.1 nm/s. In addition, the IC50 in data set [17] is 0.025 nM. In [18], `C=C1/C(=C\C=C2/CCC[C@]3(C)C([C@H](C)/C=C/S(=O)(=O)C(C)(C)C)=CC[C@@H]23)C[C@@H](O)C[C@@H]1O` yielded an IC50 of 27 nM. In [19], `CCc1ccc(N(CC(C)C)S(=O)(=O)c2ccc(OCC3CCOCC3)c(CO)c2)cc1` [GSK2981278] registered an IC50 of 3.2 nM. In [20], `N#Cc1ccc(C(=O)Nc2ccc(F)c([C@]3(CF)CS4(=O)=NCCCCN4C(N)=N3)c2)nc1` (single isomer, unassigned) registered an IC50 of 28 nM. In the case of `N=S1(=O)CCC(NC(=O)c2n[nH]cc2NC(=O)c2c(Cl)cccc2Cl)CC1` (configuration not stated), the CLH in data set [12] and in [13] was 0.06 L/h/kg throughout. As to `CCS(=N)(=O)c1ccc(Nc2ncc(Br)c(O[C@H](C)[C@@H](C)O)n2)cc1` (some centres not stated), the IC50 in data set [21] is 44 nM; in data set [22] it was 2 nM; in data set [3] it was over 10000 nM; in data set [23] it was 3 nM; in [5], 32 nM. `CN=S1(=O)C[C@@H]2[C@@H](OCc3ccccc3)[C@H](OCc3ccccc3)[C@@H](COCc3ccccc3)O[C@@H]2c2cc(C(C)(C)C)ccc21` (some centres not stated): the IC50 in data set [8] came out at 900 nM. Regarding `C[C@]12CC[C@@H]3c4ccc(O)cc4C[C@@H](CCCCCCCCC[S@@](=N)(=O)CCCC(F)(F)C(F)(F)F)[C@H]3[C@@H]1CC[C@@H]2O`, in data set [24], the IC50 was found to be 1.8 nM. Turning to `C[C@@]1(c2cc(NC(=O)c3cnc(C#N)cn3)ccc2F)CS2(=O)=NCC(F)(F)CN2C(N)=N1` (single isomer, unassigned), the IC50 in data set [20] is 2 nM.

Consider `CS(=N)(=O)c1ccc2oc3ccc(C(=O)O)cc3c(=O)c2c1` (configuration not stated), for which, in data set [9], the ED50 was found to be 0.03 mg/kg. Turning to `CN=S1(=O)C[C@@](C)(c2cc(NC(=O)c3ncc(C#N)cc3C)ccc2F)N=C(N)N1CC(F)(F)F` (single isomer, unassigned), the IC50 in data set [20] is 0.59 nM. `COc1cc(F)ccc1-c1cc(Nc2cc(C[S@@](C)(=N)=O)ccn2)ncc1F` gave an IC50 in data set [25] of 2920 nM. In the case of `Cc1cc(C#N)cnc1C(=O)Nc1ccc(F)c([C@]2(C)CS(=O)(=NCC(F)(F)F)N(C)C(N)=N2)c1` (single isomer, unassigned), the IC50 in data set [20] was 0.99 nM.

The values above are taken from ChEMBL document CHEMBL4706546, “Sulfoximines as Rising Stars in Modern Drug Discovery? Current Status and Perspective on an Emerging Functional Group in Medicinal Chemistry” (J Med Chem, 2020).
